Experimental data: patent US12063933B1, “Antimicrobial compositions including copper(I) salts and additives” (CORNING INCORPORATED, priority 2023, dated 2024)

Tested on: Staphylococcus aureus (ATCC 6538)
Assay: EPA Test antimicrobial efficacy (log kill) of films/coupons
Type: cell-based

SMILES: CCOP(OCC)OCC.[Cu][I] [CuI(TEP), iodo(triethyl phosphite)copper(I)]
- antimicrobial efficacy: essentially full kill
